One experiment concerns the target BIR2 domain of XIAP (Homo sapiens (Human), UniProt P98170, C202A/C213G). The experiment in a line: TR-FRET assay for BIR2 (inhibition of binding of XIAP BIR2 domain to SMAC-derived Peptide A). To be noted: 6x His-tagged BIR2 domain (aa 124-240 of XIAP) 10 nM, Peptide A 20 nM, TR-FRET; read-out: IC50 BIR2. On the technique in general: Time-resolved FRET reads energy transfer from a long-lived donor to a nearby acceptor.

The target in a further experiment is BIR3 domain of XIAP (Homo sapiens (Human), UniProt P98170). Briefly: TR-FRET assay for BIR3 (inhibition of binding of XIAP BIR3 domain to SMAC-derived Peptide A).
Where [1] appears, read: 6x His-tagged BIR3 domain (aa 241-356 of XIAP) 10 nM, Peptide A 20 nM, TR-FRET.

The structures appear in SMILES notation. Structures can show the parent of a compound that is named as a salt. Where two headings read alike, the source gives them in different places.

Sequence of BIR2 domain of XIAP (P98170 124-240 with tags or gaps C202A/C213G limits assumed): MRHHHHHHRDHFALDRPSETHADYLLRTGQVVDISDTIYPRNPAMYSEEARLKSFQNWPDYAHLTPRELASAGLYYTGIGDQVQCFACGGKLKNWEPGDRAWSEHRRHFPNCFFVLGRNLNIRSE
Sequence of BIR3 domain of XIAP (P98170 241-356 with tags or gaps limits assumed): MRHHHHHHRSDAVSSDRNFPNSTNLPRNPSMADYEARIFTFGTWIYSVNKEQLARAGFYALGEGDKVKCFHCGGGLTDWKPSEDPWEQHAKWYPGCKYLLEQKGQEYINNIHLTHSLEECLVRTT

On to `CN[C@@H](C)C(=O)N[C@H]1CN2C(=O)CNC(=O)c3ccc4c(c(OC)ccc4c3)CN(C1=O)c1ccccc12` [Example 108, Cyclic-5-[(S)-5-(3-Amino-acetyl)-3-((S)-2-methylamino-propionylamino)-2-oxo-2,3,4,5-tetrahydro-benzo[b][1,4]diazepin-1-ylmethyl]-6-methoxy-naphthalene-2-carboxylic amide hydrochloride], for which the IC50 was 17.2 nM at BIR2 domain of XIAP and above 54800 nM on BIR3 domain of XIAP (setting [1]).

As to `COc1ccc2c(CN3C(=O)[C@@H](NC(=O)[C@H](C)N)CN(C(=O)c4ccc(C(C)=O)cc4)c4ccccc43)cc(=O)oc2c1` [Example 69j], the half-inhibitory concentration (IC50) on BIR2 domain of XIAP is 213 nM; on BIR3 domain of XIAP (setting [1]), above 54800 nM.

Take `CN[C@@H](C)C(=O)N[C@H]1CN(S(=O)(=O)c2ccc([N+](=O)[O-])cc2)c2ccccc2N(Cc2c(C)ccc3ccccc23)C1=O` [Example 98d]: the figures for the 50% inhibitory concentration (IC50) on BIR2 domain of XIAP and at BIR3 domain of XIAP (setting [1]) were 182 nM and 29000 nM, respectively.

Take `CN[C@@H](C)C(=O)N[C@H]1CN(C(=O)c2ccc(C(C)=O)cc2)c2ccccc2N(CC(=O)Nc2nc3ccccc3s2)C1=O` [Example 109, (2S)-N-[(3S)-1-(4-acetylbenzoyl)-5-[2-(1,3-benzothiazol-2-ylamino)-2-oxoethyl]-4-oxo-2,3-dihydro-1,5-benzodiazepin-3-yl]-2-(methylamino)propanamide;2,2,2-trifluoroacctic acid]: the IC50 is 121 nM at BIR2 domain of XIAP and 42300 nM at BIR3 domain of XIAP (setting [1]).

Regarding `CN[C@@H](C)C(=O)N[C@H]1CN(C(=O)c2ccc(C(C)=O)cc2)c2ccccc2N(CC(=O)Nc2cccc3ccccc23)C1=O` [Example 105, (2S)-N-[(3S)-1-(4-acetylbenzoyl)-5-[2-(naphthalen-1-ylamino)-2-oxoethyl]-4-oxo-2,3-dihydro-1,5-benzodiazepin-3-yl]-2-(methylamino)propanamide;2,2,2-trifluoroacetic acid], the IC50 at BIR2 domain of XIAP was found to be 503 nM; on BIR3 domain of XIAP (setting [1]), 46100 nM.

On to `CN[C@@H](C)C(=O)N[C@H]1CN2C(=O)CCCNC(=O)c3ccc4c(c(OC)ccc4c3)CN(C1=O)c1ccccc12` [Example 51, Cyclic-5-[(S)-5-(4-Amino-butyryl)-3-((S)-2-methylamino-propionylamino)-2-oxo-2,3,4,5-tetrahydro-benzo[b][1,4]diazepin-1-ylmethyl]-6-methoxy-naphthalene-2-carboxylic amide hydrochloride], for which the IC50 at BIR2 domain of XIAP amounted to 58 nM; at BIR3 domain of XIAP (setting [1]) it was 42800 nM.

Turning to `CN[C@@H](C)C(=O)N[C@H]1CN(C(=O)CS(C)(=O)=O)c2cc(C#N)ccc2N(Cc2nn(-c3ccccc3C#N)c3ccccc23)C1=O` [Example 161, (2S)-N-[(3S)-7-cyano-1-[[1-(2-cyanophenyl)indazol-3-yl]methyl]-5-(2-methylsulfonylacetyl)-2-oxo-3,4-dihydro-1,5-benzodiazepin-3-yl]-2-(methylamino)propanamide;2,2,2-trifluoroacetic acid], the figures for the concentration for half-maximal inhibition (IC50) on BIR2 domain of XIAP and at BIR3 domain of XIAP (setting [1]) were 53.9 nM and above 54800 nM, respectively.

Take `CN[C@@H](C)C(=O)N[C@H]1CN(C(=O)c2ccc(F)cc2)c2cc(Cl)ccc2N(Cc2c(OC)ccc3cc(Br)ccc23)C1=O` [Example 130, (S)-N-((S)-1-((6-bromo-2-methoxynaphthalen-1-yl)methyl)-7-chloro-5-(4-fluorobenzoyl)-2-oxo-2,3,4,5-tetrahydro-1H-benzo[b][1,4]diazepin-3-yl)-2-(methylamino)propanamide hydrochloride]: the concentration for half-maximal inhibition (IC50) was found to be 35.6 nM on BIR2 domain of XIAP and 16400 nM on BIR3 domain of XIAP (setting [1]).

Consider `CN[C@@H](C)C(=O)N[C@H]1CN(C(=O)CCCCC(=O)OC)c2ccccc2N(Cc2c(C)ccc3ccccc23)C1=O` [Example 13e], for which the half-maximal inhibitory concentration (IC50) is 308 nM on BIR2 domain of XIAP and above 54800 nM at BIR3 domain of XIAP (setting [1]).

On to `CN[C@@H](C)C(=O)N[C@H]1CN(C(=O)Cc2cccnc2)c2ccccc2N(Cc2c(C)ccc3ccccc23)C1=O` [Example 96h], for which the results for the IC50 at BIR2 domain of XIAP and at BIR3 domain of XIAP (setting [1]) were 23 nM and 13600 nM, respectively.

Take `CN[C@@H](C)C(=O)N[C@H]1CN(C(=O)c2ccc(NC(=O)OCC3c4ccccc4-c4ccccc43)cc2)c2ccccc2N(Cc2c(OC)ccc3cc(C(=O)OC)ccc23)C1=O` [Example 55, 5-[(S)-5-[4-(9H-Fluoren-9-ylmethoxycarbonylamino)-benzoyl]-3-((S)-2-methylamino-propionylamino)-2-oxo-2,3,4,5-tetrahydro-benzo[b][1,4]diazepin-1-ylmethyl]-6-methoxy-naphthalene-2-carboxylic acid methyl ester hydrochloride]: the half-inhibitory concentration (IC50) at BIR2 domain of XIAP is 22 nM; at BIR3 domain of XIAP (setting [1]), above 54800 nM.

On to `CN[C@@H](C)C(=O)N[C@H]1CN(S(=O)(=O)c2ccccc2)c2ccccc2N(Cc2c(C)ccc3ccccc23)C1=O` [Example 98e], for which the IC50 at BIR2 domain of XIAP was found to be 133 nM; on BIR3 domain of XIAP (setting [1]) it was 31600 nM.

As to `CN[C@@H](C)C(=O)N[C@H]1CN(C(C)=O)c2cc(C(F)(F)F)ccc2N(Cc2nn(-c3ccccc3C#N)c3ccccc23)C1=O` [Example 177, (S)-N-((S)-5-acetyl-1-((1-(2-cyanophenyl)-1H-indazol-3-yl)methyl)-2-oxo-7-(trifluoromethyl)-2,3,4,5-tetrahydro-1H-benzo[b][1,4]diazepin-3-yl)-2-(methylamino)propanamide hydrochloride], the IC50 is 35.3 nM on BIR2 domain of XIAP and above 54800 nM at BIR3 domain of XIAP (setting [1]).

Consider `CN[C@@H](C)C(=O)N[C@H]1CN(C(=O)CS(C)(=O)=O)c2ccccc2N(Cc2c(OC(F)F)ccc3ccccc23)C1=O` [Example 83, (S)—N—((S)-1-((2-(Difluoromethoxy)naphthalen-1-yl)methyl)-5-(2-(methylsulfonyl)acetyl)-2-oxo-2,3,4,5-tetrahydro-1H-benzo[b][1,4]diazepin-3-yl)-2-(methylamino)propanamide hydrochloride], for which the concentration for half-maximal inhibition (IC50) on BIR2 domain of XIAP was 121 nM; on BIR3 domain of XIAP (setting [1]), above 54800 nM.

For `CN[C@@H](C)C(=O)N[C@H]1CN(C(=O)c2ccc(NC(C)=O)cc2)c2ccccc2N(Cc2c(OC)ccc3ccccc23)C1=O` [Example 42, (S)—N—[(S)-5-(4-Acetylamino-benzoyl)-1-(2-methoxy-naphthalen-1-ylmethyl)-2-oxo-2,3,4,5-tetrahydro-1H-benzo[b][1,4]diazepin-3-yl]-2-methylamino-propionamide hydrochloride], the IC50 at BIR2 domain of XIAP was 37 nM; on BIR3 domain of XIAP (setting [1]) it was above 54800 nM.

Regarding `CNC(=O)N1C[C@H](NC(=O)[C@H](C)NC)C(=O)N(Cc2c(C)ccc3ccccc23)c2ccccc21` [Example 17, (S)-3-((S)-2-Methylamino-propionylamino)-5-(2-methyl-naphthalen-1-ylmethyl)-4-oxo-2,3,4,5-tetrahydro-benzo[b][1,4]diazepine-1-carboxylic acid methylamide hydrochloride], the half-maximal inhibitory concentration (IC50) on BIR2 domain of XIAP is 1430 nM; on BIR3 domain of XIAP it was above 54800 nM.

On to `CN[C@@H](C)C(=O)N[C@H]1CN(C(=O)c2ccc(N)cc2)c2cc(Cl)ccc2N(Cc2c(OC)ccc3c(Br)cccc23)C1=O` [Example 123, (S)-N-((S)-5-(4-aminobenzoyl)-1-((5-bromo-2-methoxynaphthalen-1-yl)methyl)-7-chloro-2-oxo-2,3,4,5-tetrahydro-1H-benzo[b][1,4]diazepin-3-yl)-2-(methylamino)propanamide hydrochloride], for which the IC50 came to 6.71 nM on BIR2 domain of XIAP and 18700 nM at BIR3 domain of XIAP (setting [1]).

Consider `CN[C@@H](C)C(=O)N[C@H]1CN(C(=O)c2ccc(C)cc2)c2ccccc2N(Cc2c(C)ccc3ccccc23)C1=O` [Example 96k], for which the values for the IC50 at BIR2 domain of XIAP and at BIR3 domain of XIAP (setting [1]) were 38 nM and 32200 nM, respectively.

For the compound `CN[C@@H](C)C(=O)N[C@H]1CN(C(C)=O)c2cc(C#N)ccc2N(Cc2nn(-c3ccccc3C#N)c3ccccc23)C1=O` [Example 169, (S)-N-((S)-5-acetyl-7-cyano-1-((1-(2-cyanophenyl)-1H-indazol-3-yl)methyl)-2-oxo-2,3,4,5-tetrahydro-1H-benzo[b][1,4]diazepin-3-yl)-2-(methylamino)propanamide hydrochloride], the IC50 at BIR2 domain of XIAP is 33.2 nM; at BIR3 domain of XIAP (setting [1]), above 54800 nM.

Turning to `CCN[C@@H](CC)C(=O)N[C@H]1CN(C(=O)CS(C)(=O)=O)c2ccccc2N(Cc2c(OC)ccc3c(Br)cccc23)C1=O` [Example 155, (S)-N-((S)-1-((5-bromo-2-methoxynaphthalen-1-yl)methyl)-5-(2-(methylsulfonyl)acetyl)-2-oxo-2,3,4,5-tetrahydro-1H-benzo[b][1,4]diazepin-3-yl)-2-(ethylamino)butanamide hydrochloride], the half-maximal inhibitory concentration (IC50) on BIR2 domain of XIAP is 18.6 nM; at BIR3 domain of XIAP (setting [1]) it was above 54800 nM.

With `CN[C@@H](C)C(=O)N[C@H]1CN(C(=O)CS(C)(=O)=O)c2cc(C#N)ccc2N(Cc2c(OC)ccc3c(Br)cccc23)C1=O` [Example 160, (S)-N-((S)-1-((5-bromo-2-methoxynaphthalen-1-yl)methyl)-7-cyano-5-(2-(methylsulfonyl)acetyl)-2-oxo-2,3,4,5-tetrahydro-1H-benzo[b][1,4]diazepin-3-yl)-2-(methylamino)propanamide hydrochloride], the 50% inhibitory concentration (IC50) on BIR2 domain of XIAP is 16.1 nM; on BIR3 domain of XIAP (setting [1]) it was above 54800 nM.

As to `CN[C@@H](C)C(=O)N[C@H]1CN(C(=O)c2ccc(C(C)=O)cc2)c2cc(C#N)ccc2N(Cc2nn(-c3ccccc3C#N)c3ccccc23)C1=O` [Example 162, (S)-N-((S)-5-(4-acetylbenzoyl)-7-cyano-1-((1-(2-cyanophenyl)-1H-indazol-3-yl)methyl)-2-oxo-2,3,4,5-tetrahydro-1H-benzo[b][1,4]diazepin-3-yl)-2-(methylamino)propanamide hydrochloride], the IC50 at BIR2 domain of XIAP was 18.3 nM; at BIR3 domain of XIAP (setting [1]), above 54800 nM.

Take `CN[C@@H](C)C(=O)N[C@H]1CNc2cc(C#N)ccc2N(Cc2nn(-c3ccccc3C#N)c3ccccc23)C1=O` [Example 168, (S)-N-((S)-7-cyano-1-((1-(2-cyanophenyl)-1H-indazol-3-yl)methyl)-2-oxo-2,3,4,5-tetrahydro-1H-benzo[b][1,4]diazepin-3-yl)-2-(methylamino)propanamide dihydrochloride]: the results for the concentration for half-maximal inhibition (IC50) on BIR2 domain of XIAP and at BIR3 domain of XIAP (setting [1]) were 95.7 nM and above 54800 nM, respectively.

The term IC50 denotes the concentration at which inhibition is half-maximal.
